Measured values taken from patent publication US4705805A, “Antithrombotic agent” (priority 1978, dated 1987).
Like-named read-outs stand apart in the source and are kept apart here.

Columns and labels:
[1] = tested on: rabbit blood platelets (platelet rich plasma), ADP-induced aggregation; assay: inhibition of platelet aggregation in rabbit platelet rich plasma (in vitro), induced by ADP; type: cell-based; conditions: Oryctolagus cuniculus, Platelet, read-out: percentage of inhibition, ADP; for inhibition at 3 µg/mL: 3 μg/ml; for inhibition at 10 µg/mL: 10 μg/ml
Procedure: (§1) In this example, the inhibition of platelet aggregation in rabbit platelet rich plasma (in vitro) is tested.
(§2) In this test, 9 vol. of blood is sampled from the carotid artery of rabbits (2 to 2.5 Kg) and placed in a silicon-coated flask containing 1 vol. of 3.8% sodium citrate. The thus obtained blood is centrifuged at 1,000 rpm for 15 minutes to obtain platelet rich plasma (referred to as "PRP" hereinafter). The aggregation of blood platelets is observed using an aggregometer (made by Bryston Co.) and the degree of aggregation after the addition of aggregation promoting substances is measured by nephelometry, i.e., through increase in light transmission.
(§3) The PRP (0.9 ml) is placed in a silicon-coated cuvett of the aggregometer. Then, 0.05 ml of physiological saline solution containing various concentrations of test reagents or control reagents is added and the mixture is allowed to stand for one minute. Compounds promoting aggregation are then added and the absorbancy of the solution is measured and the percent inhibition of aggregation is calculated according to the following equation: [formula] C: Transmittancy showing the maximum percent aggregation by physiological saline solution
(§4) D: Transmittancy showing the maximum percent aggregation by sample
(§5) Test for the inhibition of platelet aggregation induced by ADP, collagen and thrombin.

[2] = tested on: rabbit blood platelets (platelet rich plasma), collagen-induced aggregation; assay: inhibition of platelet aggregation in rabbit platelet rich plasma (in vitro), induced by collagen; type: cell-based; conditions: Oryctolagus cuniculus, Platelet, read-out: percentage of inhibition, collagen; for inhibition at 1 µg/mL: 1 μg/ml; for inhibition at 3 µg/mL: 3 μg/ml; for inhibition at 10 µg/mL: 10 μg/ml
Procedure: as §1, §2, §3, §4, §5

[3] = tested on: human platelet rich plasma, collagen-induced aggregation; assay: inhibition of platelet aggregation in human platelet rich plasma, induced by collagen; type: cell-based; conditions: human PRP, read-out: percentage inhibition, collagen; for inhibition at 10 µg/mL: 10 μg/ml; for inhibition at 30 µg/mL: 30 μg/ml; for inhibition at 100 µg/mL: 100 μg/ml
Procedure: as §2, §3, §4
(§6) In this example, the same procedures are repeated as in Example 10 except that human platelet rich plasma is used in place of rabbit platelet rich plasma.

[4] = tested on: human platelet rich plasma, ADP-induced aggregation; assay: inhibition of platelet aggregation in human platelet rich plasma, induced by ADP; type: cell-based; conditions: human PRP, read-out: percentage inhibition, ADP; for inhibition at 30 µg/mL: 30 μg/ml; for inhibition at 100 µg/mL: 100 μg/ml; for inhibition at 10 µg/mL: 10 μg/ml
Procedure: as §2, §3, §4, §6

[5] = acute toxicity, Behrens-Karber's method; type: in vivo; conditions: in vivo; mouse, oral
Procedure: In this example, the acute toxicity of compounds of the invention is determined by Behrens-Karber's method using, 5 male dd-strain for each group weighing 20±1 g. A 0.3% CMC suspension of the test compound (concentration of the test compound: 100 mg/ml) is then orally administered to each mouse.

[6] = tested on: mice, death by ADP injection; assay: prevention of death of mice by ADP addition (in vivo), oral administration
Procedure: In this example, prevention of death of mice by ADP addition (in vivo) is tested. It is shown that intravenous administration of a great amount of ADP to mice causes aggregated blood platelets to be captured in the pulmonary capillaries so that the mice die of respiratory distress.
The test is carried out according to Roba's method. [Eur. J. Pharmacol. 37, 265-274 (1976)]. Specifically, CMC solution (0.3%) and CMC suspension containing the test compound and control compounds are orally administered to mice in a ratio of 0.1 ml/10 g (body weight). After one hour, an aqueous solution of ADP (60 mg/ml) is injected into the tail vein in a volume of 0.1 ml/10 g (body weight) every 10 seconds and the mortality is calculated.

[7] = rabbit PRP, ADP 10^-5 M, 30 μg/ml
[8] = rabbit PRP, ADP 10^-5 M, 100 μg/ml
[9] = oral, 100 mg/Kg, ADP i.v. after one hour

Structure (SMILES)	inhibition at 10 µg/mL ([1]; rabbit PRP, ADP 10^-5 M) [%]	inhibition at 30 µg/mL [1, 7] [%]	inhibition at 3 µg/mL ([2]; rabbit PRP) [%]	inhibition at 10 µg/mL ([2]; rabbit PRP) [%]	inhibition at 30 µg/mL ([2]; rabbit PRP, 30 μg/ml) [%]	inhibition at 10 µg/mL [3] [%]	inhibition at 30 µg/mL [3] [%]	inhibition at 100 µg/mL [3] [%]	inhibition at 30 µg/mL [4] [%]	inhibition at 100 µg/mL [4] [%]	LD50 [5] [mg/kg]	inhibition at 100 µg/mL [1, 8] [%]	inhibition at 100 µg/mL ([2]; rabbit PRP, 100 μg/ml) [%]	other results
O=C(c1ccccc1SSc1ccccc1C(=O)N1CCOCC1)N1CCOCC1 [Compound XXVII, 2,2'-dithiobis(benzmorpholide)]	60	100	59	100	100	0	35	100	5	45	≥ 1000	–	–	inhibition at 3 µg/mL ([1]; rabbit PRP, ADP 10^-5 M): 40%; inhibition at 1 µg/mL ([2]; rabbit PRP): 40%
O=C(NC(CO)(CO)CO)c1ccccc1SSc1ccccc1C(=O)NC(CO)(CO)CO [Compound XLI, 2,2'-dithiobis[N-2-hydroxy-1,1-di-(1'-hydroxymethyl)-ethylbenzamide]]	–	22	–	–	7	–	–	–	–	–	≥ 1000	71	96	–
O=C(Nc1ccccc1Cl)c1ccccc1SSc1ccccc1C(=O)Nc1ccccc1Cl [Compound X, 2,2'-dithiobis(N-o-chlorophenylbenzamide)]	0	24	–	4	63	–	–	–	–	–	≥ 1000	96	100	–
COc1ccc(Cc2nccc3cc(OC)c(OC)cc23)cc1OC [papaverine, reference compound]	–	–	–	–	–	–	–	–	–	–	–	–	–	inhibition at 30 µg/mL [1]: 14%; inhibition at 100 µg/mL [1]: 99%; inhibition at 30 µg/mL [2]: 34%; inhibition at 100 µg/mL [2]: 100%; effect in reducing mortality (ADP) ([6]; in words, oral or intravenous administration, Table 3): ineffective; Mortality [6, 9]: 60%; Score (mortality) [6, 9]: 6/10
O=C(Nc1ccccc1[N+](=O)[O-])c1ccccc1SSc1ccccc1C(=O)Nc1ccccc1[N+](=O)[O-] [Compound XII, 2,2'-dithiobis(N-o-nitrophenylbenzamide)]	–	–	–	–	–	–	–	–	–	–	≥ 1000	–	–	inhibition at 30 µg/mL [1]: 20%; inhibition at 100 µg/mL [1]: 50%; inhibition at 30 µg/mL [2]: 45%; inhibition at 100 µg/mL [2]: 90%
CCCCN(CCCC)C(=O)c1ccccc1SSc1ccccc1C(=O)N(CCCC)CCCC [Compound VIII, 2,2'-dithiobis(N-dibutylbenzamide)]	–	0	–	–	0	–	–	–	–	–	≥ 1000	9	13	–
COCCNC(=O)c1ccccc1SSc1ccccc1C(=O)NCCOC [Compound XVIII, 2,2'-dithiobis(N-2-methyloxyethylbenzamide)]	–	–	–	40	100	10	45	100	20	65	≥ 1000	75	100	–
O=C(NCCNCCO)c1ccccc1SSc1ccccc1C(=O)NCCNCCO [Compound XXV, 2,2'-dithiobis[N-2-(2-hydroxyethylamino)-ethylbenzamide]]	–	10	–	–	42	–	4	25	–	10	≥ 1000	–	–	–
O=C(c1ccccc1SSc1ccccc1C(=O)N1CCN(c2ccccc2)CC1)N1CCN(c2ccccc2)CC1 [Compound XXVIII, 2,2'-dithiobis(N'-phenylbenzpiperazide)]	19	55	14	55	99	–	–	–	–	–	≥ 1000	–	–	–
O=C(NCCCN1CCOCC1)c1ccccc1SSc1ccccc1C(=O)NCCCN1CCOCC1 [Compound XL, 2,2'-dithiobis(N-3-morpholinopropylbenzamide)]	69	100	21	98	100	40	100	100	85	100	≥ 1000	–	100	inhibition at 3 µg/mL ([1]; rabbit PRP, ADP 10^-5 M): 26%; inhibition at 10 µg/mL [4]: 65%
O=C(NCc1ccccc1)c1ccccc1SSc1ccccc1C(=O)NCc1ccccc1 [Compound II, 2,2'-dithiobis(N-benzylbenzamide)]	–	–	–	–	–	–	–	–	–	–	≥ 300	2.7	1.2	–
CCCCCCCCCCCC(=O)OCCNC(=O)c1ccccc1SSc1ccccc1C(=O)NCCOC(=O)CCCCCCCCCCC [Compound XIX, 2,2'-dithiobis(N-2-dodecanoyloxyethylbenzamide)]	–	12	–	–	54	–	16	46	5	35	≥ 1000	72	100	–
O=C(NCCO)c1cc(Cl)ccc1SSc1ccc(Cl)cc1C(=O)NCCO [Compound XXXI, 2,2'-dithiobis(5-chloro-N-2-hydroxyethyl)benzamide]	43	80	100	100	100	12	60	100	50	88	≥ 1000	100	100	inhibition at 3 µg/mL ([1]; rabbit PRP, ADP 10^-5 M): 0%; inhibition at 1 µg/mL ([2]; rabbit PRP): 26%; inhibition at 10 µg/mL [4]: 10%
